Results reported in paper PMC12518639, “Apomorphine is a novel necroptosis inhibitor targeting mixed lineage kinase domain-like protein oligomerization” (Cell Death Discovery, 2025).
Where a name gives a salt, the structure may show the parent alone. Where a SMILES comes first, the peptide text is derived from it. The star is where a group is joined. Cbz = O=C(OCc1ccccc1)*

What follows are compounds tested on THP-1-HMGB1-Lucia cells (assay: TBZ-induced necroptosis screening by HMGB1-luciferase release). Settings: 20 μM compound with TBZ, 8 h; TBZ alone = 100, DPBS = 0; read-out: % Inhibition (luciferase activity relative to TBZ-treated supernatant).
Assay type: cell-based, human
Procedure: To identify potential inhibitors of the necroptosis pathway targeting MLKL or the process of p-MLKL pore formation on the membrane, we screened a library of 2150 compounds, including FDA-approved drugs and those in phase 1–3 clinical trials, using THP-1-HMGB1-Lucia™ cells expressing the HMGB1-luciferase fusion protein. The cells were treated with a necroptosis-inducing mixture containing TNF-α, BV6, and Z-VAD-FMK (TBZ) in addition to the compound library (Fig. 1A). The supernatants were harvested to measure luciferase activities for necroptosis. The luciferase activities of cell supernatants treated with TBZ alone were considered as the maximum release (100%) of HMGB1-luciferase. NEC-1, a known RIP1 inhibitor used in both humans and mice, was used as a positive control. […] Next, we performed a propidium iodide (PI) uptake assay to exclude cytotoxic compounds using THP-1 cells. Then, we selected candidate molecules that were arbitrarily less than 30% of those treated with TBZ. […] Next, the inhibition levels of p-MLKL were tested to select MLKL-targeting molecules (Figs. 1C and S1A). Compounds that reduced p-MLKL levels to less than 30% of TBZ-treated controls were considered as potential inhibitors of MLKL phosphorylation. Conversely, compounds that maintained p-MLKL levels above 70% were selected because they are presumed to prevent the formation of pores in the plasma membrane by interfering with oligomerization.
A clinical chemical library containing 2150 items (Korea Chemical Bank, South Korea), under phase 1–3 clinical trials, including FDA-approved drugs, was used to screen for necroptosis inhibitors. Each chemical was dissolved in DMSO and diluted to 20 μM in DPBS for treatment.
THP-1-HMGB1-Lucia^TM cells were pretreated with the pan-caspase inhibitor Z-VAD-FMK (50 μM, tlrl-vad, InvivoGen) and each chemical for 1 h, and followed by TNF-α (100 ng/mL, TNF0501, NKMAXBio, Seongnam, S. Korea) and Smac mimetic BV6 (10 μM, B1332-5, Biovision, Santa Clara, CA, USA), termed TBZ mixture, were added for necroptosis screening. The RIP1 inhibitor, NEC-1 (1846, Biovision), and MLKL inhibitor, NSA (432531-71-0, Sigma-Aldrich, St. Louis, MO, USA), were used as controls. The cell supernatant was harvested to measure HMGB1 levels using a luciferase assay kit (E1500, Promega, Madison, WI, USA) by a luminometer (Centro XS3 LB 960, Berthold Technologies, Bad Wildbad, Germany). The inhibition of necroptosis (%) was calculated as: (sample-treated data – medium-only data) × 100/(TBZ-treated data – medium-only data). APO [STK088477, (6aS)-6-methyl-5,6,6a,7-tetrahydro-4H-dibenzo[de,g]quinoline-10,11-diol, Vitas-M Laboratory, Hong Kong] was stored at −70 °C after aliquoting with DMSO. APO was used after dilution in DPBS. APO is susceptible to auto-oxidation in solution in the presence of light and air. DPBS containing 5 mM DTT was used for Re-APO. Ox-APO was prepared by incubating APO in DPBS at 25 °C for 24 h in the presence of light and air, followed by removal of any precipitate by filtration through 0.2 μm.

Which activity does the source give for `CN1C(=O)C(Cc2c[nH]c3ccccc23)NC1=S` (stereo not drawn) [Necrostatin-1] here?
Its activity is 1.2%.

How did the activity turn out when `CC(C)C[C@@H](C=O)NC(=O)[C@H](CC(C)C)NC(=O)[C@H](CC(C)C)NC(=O)OCc1ccccc1` [S6, Z-Leu-Leu-Leu-al] (Cbz-Leu-Leu-Leu-aldehyde) was run?
The activity was 7.5%.

With `O=C(Nc1ccc(S(=O)(=O)C(F)(F)F)cc1)C1=CCN(c2ncccc2C(F)(F)F)CC1` [S7, A 784168] as the compound, how does the activity read?
The activity was 4.2%.

How did the activity turn out when `COc1ccc(CNc2nc(N(CCO)CCO)nc3c2ncn3C(C)C)cc1` [S12, CVT-313] was run?
Its activity is 4.7%.

`CC(=O)c1ccc(NC2=C(Cl)C(=O)c3ccccc3C2=O)cc1` [S21, NQ301] was tested. Which activity did it give?
The activity was 4.1%.

How did the activity turn out when `CC(C)c1onc(-c2c(Cl)cccc2Cl)c1COc1ccc(/C=C/c2cccc(C(=O)O)c2)c(Cl)c1` [S27, GW4064] was run?
The activity was 9.2%.

Which activity does the source give for `COc1ccc(C(c2c(O)c3ccccc3oc2=O)c2c(O)c3ccccc3oc2=O)cc1CSc1ccccn1` [S29, STK529529] here?
The activity was 2.8%.

For `Cc1ccccc1N(C)C(=O)c1ccc([S+]([O-])c2nccs2)c([N+](=O)[O-])c1` (stereo not drawn) [S32, SB 268262], which activity is on record?
The activity was 0%.

With `COc1ccc(C(c2c(O)c3ccccc3oc2=O)c2c(O)c3ccccc3oc2=O)cc1Cn1nc(C)c([N+](=O)[O-])c1C` [S33, STK528708] as the compound, how does the activity read?
The activity was 0.1%.

How did the activity turn out when `COc1ccc(CNC(=O)Nc2ncc([N+](=O)[O-])s2)cc1` [S36, AR-A014418] was run?
The activity was 10.8%.

How did the activity turn out when `O=c1[nH]c2ccc(Cl)cc2c(N[C@@H]2CN3CCC2CC3)c1-c1nc2ccccc2[nH]1` [S45, CHIR 124] was run?
The activity was 6.5%.

`Nc1ncnc2c1c(I)cn2[C@@H]1O[C@H](CO)[C@@H](O)[C@H]1O` [S47, 5-Iodotubercidin] was tested. Which activity did it give?
The activity was 4.9%.

`O=C1/C(=C/c2ccccc2F)CNC/C1=C\c1ccccc1F` [S49, EF-24] was tested. Which activity did it give?
The activity was 10.2%.

Which activity does the source give for `O=S(=O)(c1ccccc1)N(CC(F)(F)F)c1ccc(C(O)(C(F)(F)F)C(F)(F)F)cc1` [S52, T0901317] here?
The activity was 7.2%.

How did the activity turn out when `COc1ccc(CN2CCN(C(c3ccc(F)cc3)c3ccc(F)cc3)CC2)c(OC)c1OC` [S64, Lomerizine hydrochloride] was run?
The activity was 5.3%.

Same assay, conditions: Homo sapiens, 8 h, read-out: % Inhibition (luciferase activity relative to TBZ-treated supernatant)

Which activity at 20 µM does the source give for `CC(C)CN(C[C@@H](O)[C@H](Cc1ccccc1)NC(=O)O[C@H]1CO[C@H]2OCC[C@H]21)S(=O)(=O)c1ccc(N)cc1` [S23, Prezista] here?
The activity at 20 µM was 11.2%.

Which activity at 20 µM does the source give for `C[C@@H]1O[C@@H](O[C@@H]2C=C3CC[C@@H]4[C@H](CC[C@]5(C)[C@@H](c6ccc(=O)oc6)CC[C@]45O)[C@@]3(C)CC2)[C@H](O)[C@H](O)[C@H]1O` [S48, Proscillaridin] here?
Its activity at 20 µM is 6.8%.

With `COc1cccc2c1C(=O)c1c(O)c3c(c(O)c1C2=O)C[C@@](O)(C(C)=O)C[C@@H]3O[C@H]1C[C@H](N)[C@H](O)[C@H](C)O1` [S61, Daunorubicin] as the compound, how does the activity at 20 µM read?
Its activity at 20 µM is 6%.

Same assay, conditions: Homo sapiens; 20 μM compound with TBZ, 8 h; TBZ alone = 100, DPBS = 0; read-out: % Inhibition (luciferase activity relative to TBZ-treated supernatant)

`O=c1ncn2nc(Sc3ccc(F)cc3F)ccc2c1-c1c(Cl)cccc1Cl` [S2, Neflamapimod] was tested. Which activity at 20 µM did it give?
The activity at 20 µM was 6.8%.

How did the activity at 20 µM turn out when `CCc1c(Cl)c(O)c(Cl)c(O)c1C(=O)O[C@H]1[C@H](O)[C@H](OC)[C@H](OC/C2=C\C=C\C[C@H](O)/C(C)=C/[C@H](CC)[C@@H](O[C@@H]3OC(C)(C)[C@@H](OC(=O)C(C)C)[C@H](O)[C@@H]3O)/C(C)=C/C(C)=C/C[C@@H]([C@@H](C)O)OC2=O)O[C@@H]1C` [S5, Fidaxomicin] was run?
Its activity at 20 µM is 5.9%.

Which activity at 20 µM does the source give for `COC(=O)[C@]12CCC(C)(C)C[C@H]1[C@H]1C(=O)C=C3[C@@]4(C)C=C(C#N)C(=O)C(C)(C)[C@@H]4CC[C@@]3(C)[C@]1(C)CC2` [S8, Bardoxolone methyl] here?
The activity at 20 µM was 0%.

Which activity at 20 µM does the source give for `CO[C@H]1C[C@@H]2CC[C@@H](C)[C@@](O)(O2)C(=O)C(=O)N2CCCC[C@H]2C(=O)O[C@H]([C@H](C)C[C@@H]2CC[C@@H](OC(=O)C(C)(CO)CO)[C@H](OC)C2)CC(=O)[C@H](C)/C=C(\C)[C@@H](O)[C@@H](OC)C(=O)[C@H](C)C[C@H](C)/C=C/C=C/C=C/1C` [S9, Temsirolimus] here?
Its activity at 20 µM is 19%.

For `CC[C@H]1CN2CCc3cc(OC)c(OC)cc3[C@@H]2C[C@@H]1C[C@H]1NCCc2cc(OC)c(OC)cc21` [S13, Emetine dihydrochloride], which activity at 20 µM is on record?
The activity at 20 µM was 3.3%.

How did the activity at 20 µM turn out when `COc1cc2nccc(Oc3ccc(NC(=O)C4(C(=O)Nc5ccc(F)cc5)CC4)cc3)c2cc1OC` [S14, Cabozantinib] was run?
Its activity at 20 µM is 0.7%.

`Cc1ccc(F)c(NC(=O)Nc2ccc(-c3cccc4[nH]nc(N)c34)cc2)c1` [S20, Linifanib] was tested. Which activity at 20 µM did it give?
Its activity at 20 µM is 0%.

For `CN1CCN(c2nc(C3=C(c4c[nH]c5ccccc45)C(=O)NC3=O)c3ccccc3n2)CC1` [S22, Sotrastaurin], which activity at 20 µM is on record?
The activity at 20 µM was 4.7%.

`CC(=O)[C@@]1(O)CC[C@H]2[C@@H]3CCC4=CC(=O)CCC4=C3[C@@H](c3ccc(N(C)C)cc3)C[C@@]21C` [S24, Ulipristal] was tested. Which activity at 20 µM did it give?
Its activity at 20 µM is 14%.

With `C=C(CC)C(=O)c1ccc(OCC(=O)O)c(Cl)c1Cl` [S26, Ethacrynic acid] as the compound, how does the activity at 20 µM read?
The activity at 20 µM was 3%.

With `CCCS(=O)(=O)Nc1ccc(F)c(C(=O)c2c[nH]c3ncc(-c4ccc(Cl)cc4)cc23)c1F` [S30, Vemurafenib] as the compound, how does the activity at 20 µM read?
Its activity at 20 µM is 6.4%.

With `CC1(C)CNc2cc(NC(=O)c3cccnc3NCc3ccncc3)ccc21` [S37, Motesanib] as the compound, how does the activity at 20 µM read?
Its activity at 20 µM is 9.4%.

With `O=C(NC1CCNCC1)c1[nH]ncc1NC(=O)c1c(Cl)cccc1Cl` [S39, AT7519] as the compound, how does the activity at 20 µM read?
Its activity at 20 µM is 19.5%.

How did the activity at 20 µM turn out when `O=C(O)Cc1cccc(OCCCN(Cc2cccc(C(F)(F)F)c2Cl)CC(c2ccccc2)c2ccccc2)c1` [S40, GW3965] was run?
Its activity at 20 µM is 11.6%.

For `Cc1cc(SCc2sc(-c3ccc(C(F)(F)F)cc3)nc2C)ccc1OCC(=O)O` [S41, GW 501516], which activity at 20 µM is on record?
Its activity at 20 µM is 9.1%.

Which activity at 20 µM does the source give for `CNCc1ccc(-c2[nH]c3cc(F)cc4c3c2CCNC4=O)cc1` [S42, Rucaparib] here?
The activity at 20 µM was 9.1%.

With `N#CC1(c2ccc(NC(=O)c3cccnc3NCc3ccncc3)cc2)CCCC1` [S43, Apatinib] as the compound, how does the activity at 20 µM read?
Its activity at 20 µM is 3.4%.

How did the activity at 20 µM turn out when `CC(C)[C@H](CO)Nc1nc(Nc2cccc(Cl)c2)c2ncn(C(C)C)c2n1` [S44, Purvalanol A] was run?
Its activity at 20 µM is 3.8%.

For `O=C(Nc1cccc2c(=O)cc(-c3nnn[nH]3)oc12)c1ccc(OCCCCc2ccccc2)cc1` [S50, Pranlukast], which activity at 20 µM is on record?
Its activity at 20 µM is 10.9%.

How did the activity at 20 µM turn out when `Cc1ccc(-n2nc(C(C)(C)C)cc2NC(=O)Nc2ccc(OCCN3CCOCC3)c3ccccc23)cc1` [S51, Doramapimod] was run?
Its activity at 20 µM is 3.9%.

With `C#C[C@]1(O)CC[C@H]2[C@@H]3CCc4cc(OC5CCCC5)ccc4[C@H]3CC[C@@]21C` [S54, Quinestrol] as the compound, how does the activity at 20 µM read?
Its activity at 20 µM is 8.2%.

Which activity at 20 µM does the source give for `Nc1ccc2cc3ccc(N)cc3nc2c1` [S55, Proflavine hemisulfate] here?
Its activity at 20 µM is 3.5%.

With `CO[C@H]1C[C@@H]2CC[C@@H](C)[C@@](O)(O2)C(=O)C(=O)N2CCCC[C@H]2C(=O)O[C@H]([C@H](C)C[C@@H]2CC[C@@H](O)[C@H](OC)C2)CC(=O)[C@H](C)/C=C(\C)[C@@H](O)[C@@H](OC)C(=O)[C@H](C)C[C@H](C)/C=C/C=C/C=C/1C` [S56, Sirolimus] as the compound, how does the activity at 20 µM read?
Its activity at 20 µM is 0.3%.

For `COc1cccc2c1C(=O)c1c(O)c3c(c(O)c1C2=O)C[C@@](O)(C(=O)CO)C[C@@H]3O[C@H]1C[C@H](N)[C@H](O[C@@H]2CCCCO2)[C@H](C)O1` [S57, Pirarubicin], which activity at 20 µM is on record?
The activity at 20 µM was 6.4%.

How did the activity at 20 µM turn out when `NC(CO)(CO)CO` [S59, Trometamol] was run?
Its activity at 20 µM is 11%.

Which activity at 20 µM does the source give for `COC(=O)C1=C(C)NC(C)=C(C(=O)OCCN(C)Cc2ccccc2)C1c1cccc([N+](=O)[O-])c1` (stereo not drawn) [S60, Nicardipine hydrochloride] here?
Its activity at 20 µM is 3.8%.

For `COCCOC(=O)C1=C(C)NC(C)=C(C(=O)OC/C=C/c2ccccc2)C1c1cccc([N+](=O)[O-])c1` (stereo not drawn) [S63, Cilnidipine], which activity at 20 µM is on record?
The activity at 20 µM was 11%.
